Results as given in ChEMBL document CHEMBL1138436, “Biological activity and chemistry of taxoids from the Japanese yew, Taxus cuspidata” (J Nat Prod, 2004).

Key:
Format in all cases: functional
[1] = Growth inhibition of human HBC4 cells
MKN-45 = experiment: Growth inhibition of human MKN45 cells
NCI-H226 = experiment: Growth inhibition of human NCI-H226 cells
MKN-74 = experiment: Growth inhibition of human MKN74 cells
NCI-H23 = experiment: Growth inhibition of human NCI-H23 cells
DMS-273 = experiment: Growth inhibition of human DMS273 cells
HT-29 = experiment: Growth inhibition of human HT-29 cells
OVCAR-4 = experiment: Growth inhibition of human OVCAR4 cells
U-251 = experiment: Growth inhibition of human U251 cells
ACHN = experiment: Growth inhibition of human ACHN cells
St-4 = experiment: Growth inhibition of human St-4 cells
HCT-15 = experiment: Growth inhibition of human HCT15 cells
SF-268 = experiment: Growth inhibition of human SF268 cells
[2] = Growth inhibition of human RXF631L cells
OVCAR-5 = experiment: Growth inhibition of human OVCAR5 cells
SF-295 = experiment: Growth inhibition of human SF295 cells
LOX IMVI = experiment: Growth inhibition of human LOXIMVI cells
DMS-114 = experiment: Growth inhibition of human DMS114 cells
SNB-78 = experiment: Growth inhibition of human SNB78 cells
[3] = Growth inhibition of human MKN1 cells
MCF7 = experiment: Growth inhibition of human MCF7 cells
OVCAR-8 = experiment: Growth inhibition of human OVCAR8 cells
HCC 2998 = experiment: Growth inhibition of human HCC2998 cells
SK-OV-3 = experiment: Growth inhibition of human SKOV3 cells
A549 = experiment: Growth inhibition of human A549 cells
MDA-MB-231 = experiment: Growth inhibition of human MDA-MB-231 cells
SF-539 = experiment: Growth inhibition of human SF539 cells
DU-145 = experiment: Growth inhibition of human DU145 cells
[4] = read-out: LC50 (the source's name)
[5] = read-out: pLC50 (the source's name) (converted)

C=C1[C@@H](OC(=O)/C=C/c2ccccc2)C[C@H](OC(C)=O)[C@]2(C)[C@@H]1C[C@]1(C(C)(C)O)C[C@H](OC(C)=O)C(C)=C1[C@@H](OC(=O)c1ccccc1)[C@@H]2OC(C)=O [TAXUSPINE A]
GI50 ([1]; read-out: GI50): 100 µM | CC50 [1, 4]: > 100 µM | TGI ([1]; read-out: TGI): > 100 µM | GI50 ([1]; read-out: pGI50 (converted)): 72.4 µM | TGI ([1]; read-out: pTGI (converted)): 100 µM | GI50 (MKN-45; read-out: GI50): > 100 µM | CC50 (MKN-45; [4]): > 100 µM | TGI (MKN-45; read-out: TGI): > 100 µM | GI50 (MKN-45; read-out: pGI50 (converted)): 100 µM | CC50 (MKN-45; [5]): 100 µM | TGI (MKN-45; read-out: pTGI (converted)): 100 µM | GI50 (NCI-H226; read-out: GI50): 21 µM | CC50 (NCI-H226; [4]): > 100 µM | TGI (NCI-H226; read-out: TGI): > 100 µM | GI50 (NCI-H226; read-out: pGI50 (converted)): 83.2 µM | CC50 (NCI-H226; [5]): 100 µM | TGI (NCI-H226; read-out: pTGI (converted)): 100 µM | GI50 (MKN-74; read-out: GI50): > 100 µM | CC50 (MKN-74; [4]): > 100 µM | GI50 (MKN-74; read-out: pGI50 (converted)): 9.55 µM | CC50 (MKN-74; [5]): 100 µM | TGI (MKN-74; read-out: pTGI (converted)): 100 µM | GI50 (NCI-H23; read-out: GI50): 100 µM | CC50 (NCI-H23; [4]): > 100 µM | TGI (NCI-H23; read-out: TGI): > 100 µM | GI50 (NCI-H23; read-out: pGI50 (converted)): 100 µM | CC50 (NCI-H23; [5]): 100 µM | GI50 (DMS-273; read-out: GI50): 4.2 µM | CC50 (DMS-273; [4]): > 100 µM | TGI (DMS-273; read-out: TGI): > 100 µM | GI50 (DMS-273; read-out: pGI50 (converted)): 4.37 µM | TGI (DMS-273; read-out: pTGI (converted)): 100 µM | GI50 (HT-29; read-out: GI50): 43 µM | CC50 (HT-29; [4]): > 100 µM | TGI (HT-29; read-out: TGI): > 100 µM | GI50 (HT-29; read-out: pGI50 (converted)): 43.7 µM | TGI (HT-29; read-out: pTGI (converted)): 100 µM | GI50 (OVCAR-4; read-out: GI50): 22 µM | CC50 (OVCAR-4; [4]): > 100 µM | TGI (OVCAR-4; read-out: TGI): > 100 µM | GI50 (OVCAR-4; read-out: pGI50 (converted)): 22.4 µM | CC50 (OVCAR-4; [5]): 100 µM | TGI (OVCAR-4; read-out: pTGI (converted)): 100 µM | TGI (U-251): > 100 µM | GI50 (U-251; read-out: GI50): 71 µM | CC50 (U-251; [4]): > 100 µM | GI50 (U-251; read-out: pGI50 (converted)): 70.8 µM | GI50 (ACHN; read-out: GI50): 87 µM | CC50 (ACHN; [4]): > 100 µM | TGI (ACHN; read-out: TGI): > 100 µM | GI50 (ACHN; read-out: pGI50 (converted)): 87.1 µM | TGI (ACHN; read-out: pTGI (converted)): 100 µM | GI50 (St-4; read-out: GI50): 24 µM | CC50 (St-4; [4]): > 100 µM | TGI (St-4; read-out: TGI): > 100 µM | GI50 (St-4; read-out: pGI50 (converted)): 24 µM | CC50 (St-4; [5]): 100 µM | TGI (St-4; read-out: pTGI (converted)): 100 µM | GI50 (HCT-15; read-out: GI50): 29 µM | CC50 (HCT-15; [4]): > 100 µM | TGI (HCT-15; read-out: TGI): > 100 µM | GI50 (HCT-15; read-out: pGI50 (converted)): 28.8 µM | CC50 (HCT-15; [5]): 100 µM | TGI (HCT-15; read-out: pTGI (converted)): 100 µM | TGI (SF-268): > 100 µM | GI50 (SF-268; read-out: GI50): 43 µM | CC50 (SF-268; [4]): > 100 µM | GI50 (SF-268; read-out: pGI50 (converted)): 42.7 µM | CC50 (SF-268; [5]): 100 µM | TGI ([2]; RXF 631): > 100 µM | GI50 ([2]; RXF 631, read-out: GI50): 100 µM | CC50 ([2]; RXF 631, read-out: LC50 (the source's name)): > 100 µM | GI50 ([2]; RXF 631, read-out: pGI50 (converted)): 100 µM | CC50 ([2]; RXF 631, read-out: pLC50 (the source's name) (converted)): 100 µM | GI50 (OVCAR-5; read-out: GI50): 32 µM | CC50 (OVCAR-5; [4]): > 100 µM | TGI (OVCAR-5; read-out: TGI): > 100 µM | GI50 (OVCAR-5; read-out: pGI50 (converted)): 32.4 µM | CC50 (OVCAR-5; [5]): 100 µM | TGI (OVCAR-5; read-out: pTGI (converted)): 100 µM | GI50 (SF-295; read-out: GI50): 10 µM | CC50 (SF-295; [4]): > 100 µM | TGI (SF-295; read-out: TGI): > 100 µM | GI50 (SF-295; read-out: pGI50 (converted)): 11 µM | TGI (SF-295; read-out: pTGI (converted)): 100 µM | GI50 (LOX IMVI; read-out: GI50): 38 µM | CC50 (LOX IMVI; [4]): > 100 µM | TGI (LOX IMVI; read-out: TGI): > 100 µM | GI50 (LOX IMVI; read-out: pGI50 (converted)): 38 µM | TGI (LOX IMVI; read-out: pTGI (converted)): 100 µM | GI50 (DMS-114; read-out: GI50): 7.8 µM | CC50 (DMS-114; [4]): > 100 µM | TGI (DMS-114; read-out: TGI): > 100 µM | GI50 (DMS-114; read-out: pGI50 (converted)): 7.76 µM | GI50 (SNB-78; read-out: GI50): 3.2 µM | CC50 (SNB-78; [4]): > 100 µM | TGI (SNB-78; read-out: TGI): > 100 µM | GI50 (SNB-78; read-out: pGI50 (converted)): 3.16 µM | CC50 (SNB-78; [5]): 100 µM | TGI (SNB-78; read-out: pTGI (converted)): 100 µM | GI50 ([3]; MKN-1, read-out: GI50): 93 µM | CC50 ([3]; MKN-1, read-out: LC50 (the source's name)): > 100 µM | TGI ([3]; MKN-1, read-out: TGI): > 100 µM | GI50 ([3]; MKN-1, read-out: pGI50 (converted)): 93.3 µM | CC50 ([3]; MKN-1, read-out: pLC50 (the source's name) (converted)): 100 µM | TGI ([3]; MKN-1, read-out: pTGI (converted)): 100 µM | GI50 (MCF7; read-out: GI50): 9.3 µM | CC50 (MCF7; [4]): > 100 µM | TGI (MCF7; read-out: TGI): > 100 µM | GI50 (MCF7; read-out: pGI50 (converted)): 9.33 µM | CC50 (MCF7; [5]): 100 µM | TGI (MCF7; read-out: pTGI (converted)): 100 µM | GI50 (OVCAR-8; read-out: GI50): 100 µM | CC50 (OVCAR-8; [4]): > 100 µM | TGI (OVCAR-8; read-out: TGI): > 100 µM | GI50 (OVCAR-8; read-out: pGI50 (converted)): 100 µM | CC50 (OVCAR-8; [5]): 100 µM | TGI (OVCAR-8; read-out: pTGI (converted)): 100 µM | TGI (HCC 2998): > 100 µM | GI50 (HCC 2998; read-out: GI50): 26 µM | CC50 (HCC 2998; [4]): > 100 µM | GI50 (HCC 2998; read-out: pGI50 (converted)): 26.3 µM | GI50 (SK-OV-3; read-out: GI50): 100 µM | CC50 (SK-OV-3; [4]): > 100 µM | TGI (SK-OV-3; read-out: TGI): > 100 µM | GI50 (SK-OV-3; read-out: pGI50 (converted)): 100 µM | CC50 (SK-OV-3; [5]): 100 µM | TGI (SK-OV-3; read-out: pTGI (converted)): 100 µM | GI50 (A549; read-out: GI50): 9.6 µM | CC50 (A549; [4]): > 100 µM | TGI (A549; read-out: TGI): > 100 µM | GI50 (A549; read-out: pGI50 (converted)): 9.55 µM | CC50 (A549; [5]): 100 µM | TGI (A549; read-out: pTGI (converted)): 100 µM | GI50 (MDA-MB-231; read-out: GI50): 16 µM | CC50 (MDA-MB-231; [4]): > 100 µM | TGI (MDA-MB-231; read-out: TGI): > 100 µM | GI50 (MDA-MB-231; read-out: pGI50 (converted)): 16.2 µM | CC50 (MDA-MB-231; [5]): 100 µM | TGI (MDA-MB-231; read-out: pTGI (converted)): 100 µM | GI50 (SF-539; read-out: GI50): 100 µM | CC50 (SF-539; [4]): > 100 µM | TGI (SF-539; read-out: TGI): > 100 µM | GI50 (SF-539; read-out: pGI50 (converted)): 100 µM | CC50 (SF-539; [5]): 100 µM | TGI (SF-539; read-out: pTGI (converted)): 100 µM | TGI (DU-145): > 100 µM | GI50 (DU-145; read-out: GI50): 100 µM | CC50 (DU-145; [4]): > 100 µM | GI50 (DU-145; read-out: pGI50 (converted)): 100 µM | CC50 (DU-145; [5]): 100 µM
